Source: patent US4883807A, “1,2,5,6-tetrahydropyridyl triazoles and tetrazoles useful as fungicides” (Imperial Chemical Industries PLC, priority 1986, dated 1989)

What was measured:
Venturia inaequalis = assay: foliar fungal disease control on plants, Venturia inaequalis on apple; type: in vivo; settings: 100 ppm foliar spray plus root drench ca. 40 ppm a.i./dry soil, one or two days before inoculation
Protocol: (§1) The technique employed was as follows.
(§2) The plants were grown in John Innes Potting Compost (No. 1 or 2) in 4 cm diameter minipots. The test compounds were formulated either by bead milling with aqueous Dispersol T or as a solution in acetone or acetone/ethanol which was diluted to the required concentration immediately before use. For the foliage diseases, the formulations (100 ppm active ingredient) were sprayed on to the foliage and applied to the roots of the plants in the soil. The sprays were applied to maximum retention and the root drenches to a final concentration equivalent to approximately 40 ppm a.i./dry soil. Tween 20, to give a final concentration of 0.05%, was added when the sprays were applied to cereals.
(§3) For most of the tests the compound was applied to the soil (roots) and to the foliage (by spraying) one or two days before the plant was inoculated with the disease. An exception was the test on Erysiphe graminis in which the plants were inoculated 24 hours before treatment. Foliar pathogens were applied by spray as spore suspensions onto the leaves of test plants. After inoculation, the plants were put into an appropriate environment to allow infection to proceed and then incubated until the disease was ready for assessment. The period between inoculation and assessment varied from four to fourteen days according to the disease and environment.
(§4) The disease control was recorded by the following grading: […]

Puccinia recondita = assay: foliar fungal disease control on plants, Puccinia recondita on wheat; type: in vivo; settings: 100 ppm foliar spray plus root drench ca. 40 ppm a.i./dry soil, one or two days before inoculation
Protocol: as §1, §2, §3, §4

Pyricularia oryzae = type: in vivo; settings: 100 ppm foliar spray plus root drench ca. 40 ppm a.i./dry soil, one or two days before inoculation
Phytophthora infestans = type: in vivo; settings: 100 ppm foliar spray plus root drench ca. 40 ppm a.i./dry soil, one or two days before inoculation
Cercospora arachidicola = assay: foliar fungal disease control on plants, Cercospora arachidicola on peanut; type: in vivo; settings: 100 ppm foliar spray plus root drench ca. 40 ppm a.i./dry soil, one or two days before inoculation
Protocol: as §1, §2, §3, §4

Erysiphe graminis = assay: foliar fungal disease control on plants, Erysiphe graminis on barley; type: in vivo; settings: 100 ppm foliar spray plus root drench ca. 40 ppm a.i./dry soil; inoculated 24 hours before treatment
Protocol: as §1, §2, §3, §4

Plasmopara viticola = assay: foliar fungal disease control on plants, Plasmopara viticola on vine; type: in vivo; settings: 100 ppm foliar spray plus root drench ca. 40 ppm a.i./dry soil, one or two days before inoculation
Protocol: as §1, §2, §3, §4

[1] = tested on: Tetranyhus urticae (spider mites - ova); assay: whole plant or invertebrate; settings: 144 h, read-out: grading of mortality, TUe
Meloidogyne incognita = assay: nematode test, tomato root knot eelworm - larvae, semi in-vitro; type: in vivo; settings: 250 ppm, residual, 7 days
Protocol: (§5) The activity of the compounds was determined using a variety of insect, mite and nematode pests. The compounds were used in the form of liquid preparations containing 500 parts per million (ppm) by weight of the compound except for the test on Meloidogyne incognita when liquid preparations of 250 ppm by weight were used. The preparations were made by dissolving the compounds in acetone and diluting the solutions with water containing 0.1% by weight of a wetting agent sold under the trade name "SYNPERONIC" NX until the liquid preparations contained the required concentration of the product. "SYNPERONIC" is a Registered Trade Mark.
(§6) The test procedure adopted with regard to each pest was basically the same and comprised supporting a number of the pests on a medium which was usually a host plant or a foodstuff on which the pests feed, and treating either or both the pests and the medium with the preparations. The mortality of the pests was then assessed at periods usually varying from one to seven days after the treatment.
(§7) The results of the tests are given in Table IX for each of the products as a grading of mortality designated as 9, 5 or 0 where 9 indicates 80-100% mortality (70-100% root-knot reduction as compared with untreated plants for Meloidogyne incognita), 5 indicates 50-79% mortality (50-69% root knot reduction for Meloidogyne incognita) and 0 indicates less than 50% mortality (root-knot reduction for Meloidogyne incognita).
(§8) In Table IX the pest organism used in designated by a letter code and the pests species, the support medium or food, and the type and duration of test is given in Table VII.

Myzus persicae = assay: whole plant or invertebrate; settings: in Brassica rapa, 72 h, read-out: grading of mortality, MP
Nilaparvata lugens = assay: whole plant or invertebrate; settings: in Oryza sativa, 72 h, read-out: grading of mortality, NL
Diabrotica balteata = assay: whole plant or invertebrate; settings: in Zea mays, 72 h, read-out: grading of mortality, DB
Musca domestica = assay: whole plant or invertebrate; settings: 24 h, read-out: grading of mortality, MD
Blattella germanica = assay: whole plant or invertebrate; settings: 72 h, read-out: grading of mortality, BG
[2] = tested on: Tetranychus urticae (spider mites - adult); assay: whole plant or invertebrate; settings: in Phaseolus vulgaris, 72 h, read-out: grading of mortality, TUa
Heliothis virescens = assay: insecticidal test, tobacco budworm - larvae; type: in vivo; settings: in Gossypium hirsutum, 72 h, read-out: grading of mortality, HV
Protocol: as §5, §6, §7, §8

Nephotettix cincticeps = assay: whole plant or invertebrate; settings: in Oryza sativa, 72 h, read-out: grading of mortality, NC

SMILES	disease control grading, VENTURIA INAEQUALIS (Apple) (Venturia inaequalis)	disease control grading, PUCCINIA RECONDITA (Wheat) (Puccinia recondita)	disease control grading, P[…] (Rice) (Pyricularia oryzae)	disease control grading, PH[…] (TOMATOES) (Phytophthora infestans)	disease control grading, CERCOSPCRA ARACHIDICOLA (Peanut) (Cercospora arachidicola)	disease control grading, ERYSIPHE GRAMINIS (Barley) (Erysiphe graminis)	disease control grading, […] (Vine) (Plasmopara viticola)	mortality at 500 ppm [1] [%]	grading of root-knot reduction, MI (Meloidogyne incognita)	mortality at 500 ppm (Myzus persicae) [%]	mortality at 500 ppm (Nilaparvata lugens) [%]	mortality at 500 ppm (Diabrotica balteata) [%]	mortality at 500 ppm (Musca domestica) [%]	mortality at 500 ppm (Blattella germanica) [%]	mortality at 500 ppm [2] [%]	mortality at 500 ppm (Heliothis virescens) [%]	mortality at 500 ppm (Nephotettix cincticeps) [%]
CO/C=C(/C(=O)OC)n1cccc1/C=N/OC [Compound 1 of Table I]	4	4	4	3 (trace - 5% of disease on untreated plants)	4	4	4										
CCOC(=O)/C=C/c1cccn1/C(=C\OC)C(=O)OC [(Z)-methyl 3-methoxy-2-[2-(E-2-carbethoxyethenyl)pyrrol-1-yl]acrylate]	4	4	4	4	4	0 (60-100% of disease on untreated plants)	4										
CO/C=C(/C(=O)OC)n1cccc1/C=N/OCc1ccccc1 [Compound 5 of Table I]	4	3 (trace - 5% of disease on untreated plants)	4	0 (60-100% of disease on untreated plants)	3 (trace - 5% of disease on untreated plants)	3 (trace - 5% of disease on untreated plants)	4										
C#CCO/N=C/c1cccn1/C(=C\OC)C(=O)OC [Compound 7 of Table I]	4	4	4	3 (trace - 5% of disease on untreated plants)	4	4	4	< 50	0 (less than 50% mortality (root-knot reduction for Meloidogyne incognita))	< 50	< 50	80 to 100	< 50	50 to 79	80 to 100		
CO/C=C(/C(=O)OC)n1cccc1/C=C/C(=O)OC	4	4	4	4	2 (6-25% of disease on untreated plants)	4	4	< 50	0 (less than 50% mortality (root-knot reduction for Meloidogyne incognita))	< 50		< 50	< 50	80 to 100	80 to 100	< 50	50 to 79
